{"source": "patent US20200109163A1", "about": "“CARBONATED BEVERAGE AND METHOD FOR CARBONATION ENHANCEMENT” (INTERNATIONAL FLAVORS & FRAGRANCES INC., priority 2018, published 2020)", "format_in_all_cases": "in vivo", "key": {"[1]": {"assay": "Carbonation effect of structural analogs in lime-flavored carbonated water, trained panel", "experimental": "Selected structural analogs of sitosterol were tested for their ability to enhance the carbonation effect of a carbonated beverage. The analogs were used in amounts of 400 ppb and 200 ppb to 5 ppm. The sensory evaluation was carried by a trained panel that tasted each of the compounds in a lime-flavored carbonated water (Vintage seltzer water). The intensity of carbonation effect was rated and compared to other samples (Table 3)"}, "[2]": {"assay": "Alcohol sensation with varying amounts of alcohol, panel comparison with solutions at higher ABV", "experimental": "(§1) Alcohol solutions with ABV ranging from 8.75% to […] were prepared by diluting CAPTAIN MORGAN® Original Spiced Rum (35% ABV) (Diageo North America Inc.) in varying amounts of water.\nA β-sitosterol solution (prepared in Example 1) was added to alcohol solutions at 8.75% ABV, 17.5% ABV and 21.75% ABV (prepared in Example 1), respectively, to yield a final concentration of 25 ppb β-sitosterol. The alcohol sensation of the obtained samples was evaluated and compared by a panel with alcohol solutions at higher levels of ABV."}, "[3]": {"assay": "Alcohol impression in alcohol-free beer, panel comparison with alcohol solutions", "details": "25 ppb in Brahma 0.0% alcohol-free beer", "experimental": "Alcohol solutions at 1% ABV, 2% ABV, 2.5% ABV, 3% ABV and 5% ABV were prepared by adding varying amounts of ethanol in Brahma 0.0% alcohol-free beer (Anheuser-Busch InBev);\nA β-sitosterol solution (prepared in Example 1) was added in Brahma 0.0% alcohol-free beer to yield a final concentration of 25 ppb. The alcohol impression of the obtained sample was evaluated and compared by a panel with alcohol solutions at 1% ABV, 2% ABV, 2.5% ABV, 3% ABV and 5% ABV (prepared in Example 1). β-Sitosterol (25 ppb) provided an equal level of alcohol impression as the alcohol solution at 2.5% ABV. Accordingly, β-Sitosterol provided alcohol sensation in alcohol-free beverages."}, "[4]": {"assay": "Carbonation sensation with varying amounts of β-sitosterol in carbonated water (7.2 g/L CO2)", "experimental": "(§2) Carbonated water containing carbon dioxide at 6.0, 7.2 and 8.0 g/L, respectively, were also prepared.\nA series of β-sitosterol solutions (prepared in Example 1) were added to carbonated water (7.2 g/L CO2) (prepared in Example 1) to yield final concentrations ranging from 0.1 ppt to 50 ppt. The carbonation sensation of the obtained samples containing different amounts of β-sitosterol was evaluated."}, "[5]": {"assay": "Carbonation sensation with varying amounts of carbonation", "details": "2.5 ppt in carbonated water containing 6.0, 7.2 or 8.0 g/L CO2, all samples", "experimental": "as §2\nA β-sitosterol solution (prepared in Example 1) was added to carbonated water containing 6.0, 7.2 or 8.0 g/L CO2 (prepared in Example 1), respectively, to yield a final concentration of 2.5 ppt β-sitosterol. The carbonation sensation of the obtained samples was evaluated."}, "[6]": {"assay": "Alcohol sensation intensity in alcohol solution at 6% ABV, panel, scale 0 to 10", "details": "100 ppb in solution of 6% ABV; scale 0 to 10 (0=none, 4=medium, 7=high, 10=extremely high); control 4.38 ± 0.32", "experimental": "Alcohol solution at 6% ABV was prepared by adding ethanol in water; and\nA β-sitosterol solution (prepared in Example 1) was added to the alcohol solution at 6% ABV (prepared in Example 1) to yield a final concentration of 100 ppb. The alcohol sensation of the obtained sample was evaluated and compared by a panel with the alcohol solution at 6% ABV using an intensity scale of 0 to 10, where 0=none, 4=medium, 7=high and 10=extremely high. The intensity of alcohol sensation was rated. Mean (“Alcohol Intensity”) and standard error of the mean (“SE”, ±) were obtained (Table 1)."}, "[7]": {"assay": "Flavor of β-sitosterol solutions in water", "details": "solutions 2.5 to 600 ppb in water"}, "[8]": {"assay": "Carbonation effect intensity in carbonated water (7.2 g/L CO2), panel, scale 0 to 10", "details": "2.5 ppt in solution of 7.2 g/L CO2; scale 0 to 10 (0=none, 4=medium, 7=high, 10=extremely high); control 4.88 ± 2.53", "experimental": "as §2\nA β-sitosterol solution (prepared in Example 1) was added to the carbonated water (7.2 g/L CO2) (prepared in Example 1) to yield a final concentration of 2.5 ppt. The carbonation effect of the obtained sample was evaluated and compared by a panel with the carbonated water using an intensity scale of 0 to 10, where 0=none, 4=medium, 7=high and 10=extremely high. The intensity of carbonation effect was rated. Mean (“Carbonation Intensity”) and standard error of the mean (“SE”, ±) were obtained (Table 2)."}, "[9]": {"assay": "Alcohol sensation with varying amounts of β-sitosterol in alcohol solution at 17.5% ABV", "experimental": "as §1\nA series of β-sitosterol solutions (prepared in Example 1) were added to the alcohol solution at 17.5% ABV (prepared in Example 1) to yield final concentrations of β-sitosterol ranging from 3 to 500 ppb. The alcohol sensation of the obtained samples containing different amounts of β-sitosterol was evaluated."}, "[10]": {"details": "200 ppb-5 ppm in lime-flavored carbonated water (Vintage seltzer water)"}, "[11]": {"details": "200 ppb in lime-flavored carbonated water (Vintage seltzer water)"}}, "data": [{"smiles": "C[C@H](CCC(=O)O)[C@H]1CC[C@H]2[C@@H]3[C@H](O)C[C@@H]4C[C@H](O)CC[C@]4(C)[C@H]3CC[C@]12C", "note": "[Chenodeoxycholic acid]", "values": [{"measurement": "Carbonation Effect", "setting": "[1]; [10]", "value": "200 ppb-5 ppm: Adds more violent upfront"}]}, {"smiles": "CC[C@H](CC[C@@H](C)[C@H]1CC[C@H]2[C@@H]3CC=C4C[C@@H](O[C@@H]5O[C@H](CO)[C@@H](O)[C@H](O)[C@H]5O)CC[C@]4(C)[C@H]3CC[C@]12C)C(C)C", "note": "[β-Sitosterol β-D-glucoside, Daucosterol, β-Sitosterol β-D-glucoside]", "values": [{"measurement": "Carbonation Effect", "setting": "[1]; [10]", "value": "200 ppb-5 ppm: Slight tingly tip of tongue,"}]}, {"smiles": "CC[C@H](/C=C/[C@@H](C)[C@H]1CC[C@H]2[C@@H]3CC=C4C[C@@H](O)CC[C@]4(C)[C@H]3CC[C@]12C)C(C)C", "note": "[Stigmasterol]", "values": [{"measurement": "Carbonation Effect", "setting": "[1]; [10]", "value": "200 pb-5 ppm: 5 ppm is a good level, adds more"}]}, {"smiles": "CC(C)(O)[C@@H]1CC[C@](C)([C@H]2[C@@H](O)C[C@@]3(C)[C@@H]4C[C@H](O[C@@H]5O[C@H](CO)[C@@H](O)[C@H](O)[C@H]5O)[C@H]5C(C)(C)[C@@H](O[C@@H]6OC[C@@H](O)[C@H](O)[C@H]6O)CC[C@@]56C[C@@]46CC[C@]23C)O1", "note": "[Astragaloside IV]", "values": [{"measurement": "Carbonation Effect", "setting": "[1]; [11]", "value": "200 ppb: More impactful, long lasting, very"}]}, {"smiles": "CC[C@H](CC[C@@H](C)[C@H]1CC[C@H]2[C@@H]3CC=C4C[C@@H](O)CC[C@]4(C)[C@H]3CC[C@]12C)C(C)C", "note": "[β-sitosterol, (3S,8S,9S,10R,13R,14S,17R)-17-((1R,4R)-4-ethyl-1,5-dimethyl-hexyl)-10,13-dimethyl-2,3,4,7,8,9,10,11,12,13,14,15,16,17-tetradecahydro-1H-cyclopenta[a]phenanthren-3-ol]", "values": [{"measurement": "Alcohol sensation at the level of an alcohol solution at", "setting": "[2]; 25 ppb in alcohol solution at 8.75% ABV", "value": 10, "unit": "% ABV"}, {"measurement": "Alcohol sensation at the level of an alcohol solution at", "setting": "[2]; 25 ppb in alcohol solution at 17.5% ABV", "value": 22.5, "unit": "% ABV"}, {"measurement": "Alcohol sensation at the level of an alcohol solution at", "setting": "[2]; 25 ppb in alcohol solution at 21.75% ABV", "value": 35, "unit": "% ABV"}, {"measurement": "Alcohol impression, equal level as alcohol solution at", "setting": "[3]", "value": 2.5, "unit": "% ABV"}, {"measurement": "Carbonation perception", "setting": "[4]; 0.1 ppt in carbonated water (7.2 g/L CO2)", "value": "slight increase in carbonation perception"}, {"measurement": "Carbonation perception", "setting": "[4]; 2.5 ppt in carbonated water (7.2 g/L CO2)", "value": "clear increase in carbonation perception"}, {"measurement": "Enhancement of carbonation effect", "setting": "[4]; 5 ppt or higher in carbonated water (7.2 g/L CO2)", "value": "reached a stable plateau"}, {"measurement": "Carbonation sensation", "setting": "[5]", "value": "provided enhancement of carbonation sensation"}, {"measurement": "Mean Alcohol Intensity ± SE", "setting": "[6]", "value": "7.21 ± 0.27"}, {"measurement": "Flavor of the compound itself", "setting": "[7]", "value": "no noticeable flavor itself"}, {"measurement": "Mean Carbonation Intensity ± SE", "setting": "[8]", "value": "7.19 ± 1.73"}, {"measurement": "Alcohol sensation", "setting": "[9]; 3 ppb in alcohol solution at 17.5% ABV", "value": "slight but noticeable increase in alcohol sensation"}, {"measurement": "Enhancement of alcohol sensation", "setting": "[9]; 200 ppb in alcohol solution at 17.5% ABV", "value": "reached a stable plateau"}, {"measurement": "Alcohol sensation", "setting": "[9]; higher concentrations (above 3 ppb, up to 500 ppb) in alcohol solution at 17.5% ABV", "value": "clear increase in alcohol intensity"}]}, {"smiles": "CC(C)CCC[C@@H](C)[C@H]1CC[C@H]2[C@@H]3CC=C4C[C@@H](O)CC[C@]4(C)[C@H]3CC[C@]12C", "note": "[Cholesterol]", "values": [{"measurement": "Carbonation Effect", "setting": "[1]; [10]", "value": "200 ppb-5 ppm: Very similar to Deoxycholic"}]}, {"smiles": "C[C@@H]1CC[C@@]2(OC1)O[C@H]1C[C@H]3[C@@H]4CC=C5C[C@@H](O)CC[C@]5(C)[C@H]4CC[C@]3(C)[C@H]1[C@@H]2C", "note": "[Diosgenin]", "values": [{"measurement": "Carbonation Effect", "setting": "[1]; [10]", "value": "200 ppb-5 ppm: Not much effect on carbonation,"}]}, {"smiles": "C[C@H](CCC(=O)O)[C@H]1CC[C@H]2[C@@H]3C[C@H](O)[C@@H]4C[C@H](O)CC[C@]4(C)[C@H]3CC[C@]12C", "note": "[Hyodeoxycholic acid]", "values": [{"measurement": "Carbonation Effect", "setting": "[1]; [11]", "value": "200 ppb: Very foamy, fast bubbles upfront,"}]}, {"smiles": "C[C@H](CCC(=O)NCC(=O)O)[C@H]1CC[C@H]2[C@@H]3[C@H](O)C[C@@H]4C[C@H](O)CC[C@]4(C)[C@H]3C[C@H](O)[C@]12C", "note": "[Glycocholic acid hydrate]", "values": [{"measurement": "Carbonation Effect", "setting": "[1]; [11]", "value": "200 ppb: Longer lasting bubbles than control,"}]}, {"smiles": "C[C@H](CCC(=O)O)[C@H]1CC[C@H]2[C@@H]3[C@H](O)C[C@@H]4C[C@H](O)CC[C@]4(C)[C@H]3C[C@H](O)[C@]12C", "note": "[Cholic acid]", "values": [{"measurement": "Carbonation Effect", "setting": "[1]; [11]", "value": "200 ppb: More tingly bubbles on tongue, linger,"}, {"measurement": "Carbonation Effect", "setting": "[1]; 400 ppb in lime-flavored carbonated water (Vintage seltzer water)", "value": "400 ppb: Very foamy, foam builds, lingering"}]}, {"smiles": "C=C(C)[C@@H]1CC[C@]2(CO)CC[C@]3(C)[C@H](CC[C@@H]4[C@@]5(C)CC[C@H](O)C(C)(C)[C@@H]5CC[C@]43C)[C@@H]12", "note": "[Betulin]", "values": [{"measurement": "Carbonation Effect", "setting": "[1]; [11]", "value": "200 ppb: Long lasting popping, sour, works with"}]}, {"smiles": "C[C@H](CCC(=O)NCCS(=O)(=O)[O-])[C@H]1CC[C@H]2[C@@H]3[C@@H](O)C[C@@H]4C[C@H](O)CC[C@]4(C)[C@H]3CC[C@]12C.[Na+]", "note": "[Sodium tauroursodeoxycholate]", "values": [{"measurement": "Carbonation Effect", "setting": "[1]; [11]", "value": "200 ppb: Very impactful, numbing, slightly more"}]}]}
